Measurements taken from PubChem BioAssay AID270 (DTP/NCI, 2004).
Where “and” joins values, the source holds several entries; their conditions need not be identical. Equal entries are not always repeated. Results filed as inconclusive are left out.

Tested on: BDF1 mice, s.c. Lewis lung carcinoma, T/C %
Experiment: NCI In Vivo Anticancer Drug Screen. Data for tumor model Lewis Lung Carcinoma (subcutaneous) in B6D2F1 (BDF1) mice
Outline: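 Tumor-bearing mice were treated with test compound, and either survival or tumor size was recorded. Values are the treated-group measurement divided by that of the vehicle-treated control group.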

[1] = endpoint: mean tumor weight, dose: 6.25 mg/kg/injection, schedule: Q01DX011 (ip), vehicle: saline, higher = larger tumour
[2] = endpoint: mean tumor weight, dose: 12.5 mg/kg/injection, schedule: Q01DX011 (ip), vehicle: saline, higher = larger tumour
[3] = endpoint: median survival time, dose: 25.0 mg/kg/injection, schedule: Q01DX009 (ip), vehicle: Klucel (hydroxypropylcellulose) (HPC), higher = longer survival
[4] = endpoint: median survival time, dose: 25.0 mg/kg/injection, schedule: Q01DX009 (ip), vehicle: saline with Tween-80, higher = longer survival

O=c1c(O)c(-c2ccccc2)oc2ccccc12
T/C (endpoint: mean tumor weight, dose: 0.19 mg/kg/injection, schedule: Q01DX011 (ip), vehicle: saline, higher = larger tumour): 79 % of control
T/C (endpoint: mean tumor weight, dose: 0.39 mg/kg/injection, schedule: Q01DX011 (ip), vehicle: saline, higher = larger tumour): 50 % of control
T/C (endpoint: mean tumor weight, dose: 0.78 mg/kg/injection, schedule: Q01DX011 (ip), vehicle: saline, higher = larger tumour): 105 % of control
T/C (endpoint: mean tumor weight, dose: 1.56 mg/kg/injection, schedule: Q01DX011 (ip), vehicle: saline, higher = larger tumour): 52 % of control and 58 % of control
T/C (endpoint: mean tumor weight, dose: 3.13 mg/kg/injection, schedule: Q01DX011 (ip), vehicle: saline, higher = larger tumour): 78 % of control
T/C [1]: 97 % of control
T/C (endpoint: mean tumor weight, dose: 12.5 mg/kg/injection, schedule: Q01DX010 (ip), vehicle: saline, higher = larger tumour): 67 % of control
T/C [2]: 103 % of control
T/C (endpoint: mean tumor weight, dose: 25.0 mg/kg/injection, schedule: Q01DX010 (ip), vehicle: saline, higher = larger tumour): 82 % of control
T/C (endpoint: mean tumor weight, dose: 50.0 mg/kg/injection, schedule: Q01DX010 (ip), vehicle: saline, higher = larger tumour): 104 % of control
T/C (endpoint: mean tumor weight, dose: 100.0 mg/kg/injection, schedule: Q01DX010 (ip), vehicle: saline, higher = larger tumour): 83 % of control

CS(C)=O
T/C (endpoint: mean tumor weight, dose: 250.0 mg/kg/injection, schedule: Q01DX011 (ip), vehicle: carboxymethylcellulose (CMC), higher = larger tumour): 68 % of control
T/C (endpoint: mean tumor weight, dose: 500.0 mg/kg/injection, schedule: Q01DX011 (ip), vehicle: carboxymethylcellulose (CMC), higher = larger tumour): 117 % of control
T/C (endpoint: mean tumor weight, dose: 1000.0 mg/kg/injection, schedule: Q01DX011 (ip), vehicle: carboxymethylcellulose (CMC), higher = larger tumour): 86 % of control
T/C (endpoint: mean tumor weight, dose: 2000.0 mg/kg/injection, schedule: Q01DX011 (ip), vehicle: carboxymethylcellulose (CMC), higher = larger tumour): 57 % of control
T/C (endpoint: median survival time, dose: 3.0 grams/kg/injection, schedule: Q01DX009 (ip), vehicle: saline, higher = longer survival): 101 % of control
T/C (endpoint: median survival time, dose: 6.0 grams/kg/injection, schedule: Q01DX009 (ip), vehicle: saline, higher = longer survival): 93 % of control

O=[N+]([O-])c1ccc(CSc2ncnc3c2ncn3C2OC(CO)C(O)C2O)cc1 (stereo not drawn)
T/C (endpoint: median survival time, dose: 0.3 mg/kg/injection, schedule: Q01DX010 (ip), vehicle: saline with Tween-80, higher = longer survival): 93 % of control
T/C (endpoint: median survival time, dose: 3.0 mg/kg/injection, schedule: Q01DX010 (ip), vehicle: saline with Tween-80, higher = longer survival): 97 % of control
T/C (endpoint: median survival time, dose: 30.0 mg/kg/injection, schedule: Q01DX010 (ip), vehicle: saline with Tween-80, higher = longer survival): 106 % of control

CC1CCCC(NC(=O)N(CCCl)N=O)C1 (stereo not drawn)
T/C (endpoint: median survival time, dose: 20.0 mg/kg/injection, schedule: Q01DX001 (ip), vehicle: gum acacia, higher = longer survival): 110 % of control
T/C (endpoint: median survival time, dose: 30.0 mg/kg/injection, schedule: Q01DX001 (ip), vehicle: gum acacia, higher = longer survival): 110 % of control
T/C (endpoint: median survival time, dose: 43.0 mg/kg/injection, schedule: Q01DX001 (ip), vehicle: gum acacia, higher = longer survival): 92 % of control
T/C (endpoint: median survival time, dose: 64.0 mg/kg/injection, schedule: Q01DX001 (ip), vehicle: gum acacia, higher = longer survival): 90 % of control
T/C (endpoint: median survival time, dose: 96.0 mg/kg/injection, schedule: Q01DX001 (ip), vehicle: gum acacia, higher = longer survival): 155 % of control

O=NN(CCCl)C(=O)Nc1cccc(O)c1
T/C [3]: 116 % of control

CCN(CC)CCNc1ccc(C)c2sc3ccccc3c(=O)c12
T/C (endpoint: mean tumor weight, dose: 20.0 mg/kg/injection, schedule: Q01DX011 (ip), vehicle: carboxymethylcellulose (CMC), higher = larger tumour): 62 % of control and 65 % of control
T/C (endpoint: mean tumor weight, dose: 40.0 mg/kg/injection, schedule: Q01DX011 (ip), vehicle: carboxymethylcellulose (CMC), higher = larger tumour): 51 % of control and 59 % of control
T/C (endpoint: mean tumor weight, dose: 80.0 mg/kg/injection, schedule: Q01DX011 (ip), vehicle: carboxymethylcellulose (CMC), higher = larger tumour): 16 % of control

C[n+]1cccc(C(=O)O)c1
T/C (endpoint: mean tumor weight, dose: 50.0 mg/kg/injection, schedule: Q01DX011 (ip), vehicle: saline, higher = larger tumour): 116 % of control
T/C (endpoint: mean tumor weight, dose: 100.0 mg/kg/injection, schedule: Q01DX011 (ip), vehicle: saline, higher = larger tumour): 75 % of control
T/C (endpoint: mean tumor weight, dose: 200.0 mg/kg/injection, schedule: Q01DX011 (ip), vehicle: saline, higher = larger tumour): 60 % of control

CCCNc1ncnc2c1cnn2C
T/C (endpoint: mean tumor weight, dose: 3.12 mg/kg/injection, schedule: Q01DX011 (ip), vehicle: saline, higher = larger tumour): 95 % of control
T/C [1]: 89 % of control
T/C [2]: 65 % of control
T/C (endpoint: mean tumor weight, dose: 25.0 mg/kg/injection, schedule: Q01DX011 (ip), vehicle: saline, higher = larger tumour): 28 % of control

Cc1cc(N(CCCl)CCCl)ccc1C=Nc1cccnc1
T/C [3]: 104 % of control
T/C [4]: 95 % of control
T/C (endpoint: median survival time, dose: 50.0 mg/kg/injection, schedule: Q01DX009 (ip), vehicle: Klucel (hydroxypropylcellulose) (HPC), higher = longer survival): 96 % of control
T/C (endpoint: median survival time, dose: 50.0 mg/kg/injection, schedule: Q01DX009 (ip), vehicle: saline with Tween-80, higher = longer survival): 92 % of control
T/C (endpoint: median survival time, dose: 100.0 mg/kg/injection, schedule: Q01DX009 (ip), vehicle: Klucel (hydroxypropylcellulose) (HPC), higher = longer survival): 103 % of control
T/C (endpoint: median survival time, dose: 100.0 mg/kg/injection, schedule: Q01DX009 (ip), vehicle: saline with Tween-80, higher = longer survival): 93 % of control
T/C (endpoint: median survival time, dose: 200.0 mg/kg/injection, schedule: Q01DX009 (ip), vehicle: Klucel (hydroxypropylcellulose) (HPC), higher = longer survival): 98 % of control

CC(=O)OC/C=C(C)/C=C/C=C(C)/C=C/C1=C(C)CCCC1(C)C
T/C (endpoint: median survival time, dose: 200.0 mg/kg/injection, schedule: Q01DX005 (ip), vehicle: saline with Tween-80, higher = longer survival): 100 % of control

CC1OC(O[C@@H]2C=C3CC[C@@H]4[C@H](CC[C@]5(C)[C@@H](c6ccc(=O)oc6)CC[C@]45O)[C@@]3(C)CC2)C(O)C(O)C1O (stereo partly drawn)
T/C (endpoint: mean tumor weight, dose: 1.25 mg/kg/injection, schedule: Q01DX011 (ip), vehicle: saline, higher = larger tumour): 114 % of control
T/C (endpoint: mean tumor weight, dose: 2.5 mg/kg/injection, schedule: Q01DX011 (ip), vehicle: saline, higher = larger tumour): 90 % of control
T/C (endpoint: mean tumor weight, dose: 5.0 mg/kg/injection, schedule: Q01DX011 (ip), vehicle: saline, higher = larger tumour): 64 % of control
T/C (endpoint: mean tumor weight, dose: 10.0 mg/kg/injection, schedule: Q01DX011 (ip), vehicle: saline, higher = larger tumour): 83 % of control

C=C[C@]1(C)C=C2CC[C@@H]3[C@](C)(CCC[C@@]3(C)C(=O)O)[C@H]2CC1
T/C (endpoint: mean tumor weight, dose: 7.8 mg/kg/injection, schedule: Q01DX011 (ip), vehicle: saline, higher = larger tumour): 73 % of control
T/C (endpoint: mean tumor weight, dose: 15.6 mg/kg/injection, schedule: Q01DX011 (ip), vehicle: saline, higher = larger tumour): 55 % of control
T/C (endpoint: mean tumor weight, dose: 31.3 mg/kg/injection, schedule: Q01DX011 (ip), vehicle: saline, higher = larger tumour): 43 % of control
T/C (endpoint: mean tumor weight, dose: 62.5 mg/kg/injection, schedule: Q01DX011 (ip), vehicle: saline, higher = larger tumour): 98 % of control and 102 % of control
T/C (endpoint: mean tumor weight, dose: 125.0 mg/kg/injection, schedule: Q01DX011 (ip), vehicle: saline, higher = larger tumour): 102 % of control
T/C (endpoint: mean tumor weight, dose: 250.0 mg/kg/injection, schedule: Q01DX011 (ip), vehicle: saline, higher = larger tumour): 82 % of control

CCOP(=O)(N1CC1(C)C)N1CC1(C)C (stereo not drawn)
T/C (endpoint: median survival time, dose: 5.0 mg/kg/injection, schedule: Q01DX009 (ip), vehicle: saline, higher = longer survival): 94 % of control
T/C (endpoint: median survival time, dose: 10.0 mg/kg/injection, schedule: Q01DX009 (ip), vehicle: saline, higher = longer survival): 101 % of control
T/C (endpoint: median survival time, dose: 20.0 mg/kg/injection, schedule: Q01DX009 (ip), vehicle: saline, higher = longer survival): 94 % of control
T/C (endpoint: median survival time, dose: 30.0 mg/kg/injection, schedule: Q01DX009 (ip), vehicle: saline, higher = longer survival): 101 % of control
T/C (endpoint: median survival time, dose: 50.0 mg/kg/injection, schedule: Q01DX009 (ip), vehicle: saline, higher = longer survival): 90 % of control
T/C (endpoint: median survival time, dose: 80.0 mg/kg/injection, schedule: Q01DX009 (ip), vehicle: saline, higher = longer survival): 99 % of control

CCCCCCCCCCCCSC(=N)N
T/C (endpoint: median survival time, dose: 6.25 mg/kg/injection, schedule: Q01DX009 (ip), vehicle: saline with Tween-80, higher = longer survival): 107 % of control
T/C (endpoint: median survival time, dose: 12.5 mg/kg/injection, schedule: Q01DX009 (ip), vehicle: saline with Tween-80, higher = longer survival): 106 % of control
T/C [4]: 104 % of control

C[C@]12CC[C@H]3[C@@H](CC[C@]4(O)C[C@@H](O)CC[C@]34/C=N/O)[C@@]1(O)CC[C@@H]2C1=COC(=O)C1
T/C (endpoint: mean tumor weight, dose: 1.87 mg/kg/injection, schedule: Q01DX011 (ip), vehicle: carboxymethylcellulose (CMC), higher = larger tumour): 34 % of control
T/C (endpoint: mean tumor weight, dose: 3.75 mg/kg/injection, schedule: Q01DX011 (ip), vehicle: carboxymethylcellulose (CMC), higher = larger tumour): 58 % of control
T/C (endpoint: mean tumor weight, dose: 15.0 mg/kg/injection, schedule: Q01DX011 (ip), vehicle: carboxymethylcellulose (CMC), higher = larger tumour): 92 % of control
T/C (endpoint: mean tumor weight, dose: 30.0 mg/kg/injection, schedule: Q01DX011 (ip), vehicle: carboxymethylcellulose (CMC), higher = larger tumour): 61 % of control

CNC(=S)N/N=C/c1ccc([N+](=O)[O-])s1
T/C [4]: 121 % of control

COC(=O)C(N)CCCCNc1ccc2c(cc1=O)C(NC(C)=O)CCc1cc(OC)c(OC)c(OC)c1-2 (stereo not drawn)
T/C (endpoint: median survival time, dose: 25.0 mg/kg/injection, schedule: Q02DX009 (ip), vehicle: saline with Tween-80, higher = longer survival): 100 % of control
T/C (endpoint: median survival time, dose: 50.0 mg/kg/injection, schedule: Q02DX009 (ip), vehicle: saline with Tween-80, higher = longer survival): 94 % of control

COCC(O)Cn1ccnc1[N+](=O)[O-] (stereo not drawn)
T/C (endpoint: median survival time, dose: 500.0 mg/kg/injection, schedule: Q01DX001 (ip), vehicle: saline, higher = longer survival): 81 % of control
T/C (endpoint: median survival time, dose: 600.0 mg/kg/injection, schedule: Q01DX001 (ip), vehicle: saline, higher = longer survival): 77 % of control and 93 % of control
T/C (endpoint: median survival time, dose: 1000.0 mg/kg/injection, schedule: Q01DX001 (ip), vehicle: saline, higher = longer survival): 74 % of control and 91 % of control and 94 % of control
